Test results published in ChEMBL document CHEMBL1151966, “Okundoperoxide, a bicyclic cyclofarnesylsesquiterpene endoperoxide from Scleria striatinux with antiplasmodial activity” (J Nat Prod, 2009).
Converted amounts (≈) assume the structure as drawn.

Tests used:
Plasmodium falciparum [1] = assay: Antiplasmodial activity after 24 hrs against chloroquine-resistant Plasmodium falciparum W2 infected human erythrocytes by [3H]hypoxanthine uptake; type: functional, organism-based
Plasmodium falciparum [2] = assay: Antiplasmodial activity after 24 hrs against chloroquine,pyrimethamine-resistant Plasmodium falciparum K1 infected human erythrocytes by [3H]hypoxanthine uptake; type: functional, organism-based
Plasmodium falciparum [3] = assay: Antiplasmodial activity after 24 hrs against chloroquine-sensitive Plasmodium falciparum D6 infected human erythrocytes by [3H]hypoxanthine uptake; type: functional, organism-based
[4] = Cytotoxicity against human erythrocytes; type: cell-based; conditions: Erythrocyte
Plasmodium falciparum [5] = assay: Antiplasmodial activity after 24 hrs against drug-sensitive Plasmodium falciparum NF54 infected human erythrocytes by [3H]hypoxanthine uptake; type: functional, organism-based

Row | SMILES | IC50 (Plasmodium falciparum [1]) [µg/mL] | IC50 (Plasmodium falciparum [2]) [µg/mL] | IC50 (Plasmodium falciparum [3]) [µg/mL] | IC50 [4] [µg/mL] | IC50 (Plasmodium falciparum [5]) [µg/mL]
1 | C/C(=C\CO)[C@H]1C[C@H]2C(C)(C)C(=O)C=C[C@]2(C)OO1 (relative stereo) [OKUNDOPEROXIDE] | 0.47 (≈ 1.76 µM) | 1.5 (≈ 5.62 µM) | 0.483 (≈ 1.81 µM) | 22.7 (≈ 85.2 µM) | 1.31 (≈ 4.91 µM)
2 | COc1cc([C@@H]2c3cc4c(cc3[C@H](O)[C@H]3COC(=O)[C@H]23)OCO4)cc(OC)c1OC [PODOFILOX] |  |  |  | 0.007 (≈ 0.0169 µM) | 
